In patent US12612389B2, “Benzofuran-based N-acylhydrazone derivative and pharmaceutical composition comprising same” (KOREA RESEARCH INSTITUTE OF BIOSCIENCE AND BIOTECHNOLOGY, priority 2019, dated 2026):

Tests used:
[1] = Metabolic stability test in liver microsomes; type: in vitro ADME; details: 0.5 mg protein/mL, 37° C.
Procedure: The test compounds at a concentration of […] were administered in the presence or absence of NADPH (1 mM) to liver […] (0.5 mg protein/mL) of humans, rats and mice, and metabolic stability was tested at 37° C. for 30 minutes. In addition, buspirone was used as a positive control. Results thereof are shown in Table below and FIGS. 4A to 4E.

HeLa cells = test: Anti-proliferative activity test in HeLa cell line (MTT); type: cell-based; details: Homo sapiens, 48 h, grown for 2 days, mean of 2
Procedure: HeLa cells (American Type Culture Collection: ATCC, USA), a human cervical cancer cell line, were seeded in a 96-well plate at 3×10^3 cells/well, and the cells were then treated with compounds of Examples or Comparative Example according to the present invention and grown for 2 days. Then, MTT (3-(4,5-dimethylthiazol-2-yl)-2,5-diphenyltetrazolium bromide) reagent was added at 10 μL/well. After 2 hours, absorbance was measured at “OD 450” and statistical values were obtained using Prism™6 program. The data shown in Table below are mean values of results obtained by repeating the analysis twice.

IC50 (HeLa cells) | SMILES | further results
 | O=C1CC2(CCCC2)CC(=O)N1CCCCN1CCN(c2ncccn2)CC1 [Buspirone, buspirone, reference compound] | Residue (%) after culturing for 30 min ([1]; Human, +NADPH): 2.21 ± 0.03%; Residue (%) after culturing for 30 min ([1]; Human, −NADPH): 91.06 ± 0.40%; Residue (%) after culturing for 30 min ([1]; Mouse, +NADPH): 0.32 ± 0.05%; Residue (%) after culturing for 30 min ([1]; Mouse, −NADPH): 94.74 ± 0.74%; Residue (%) after culturing for 30 min ([1]; Rat, +NADPH): 0.41 ± 0.02%; Residue (%) after culturing for 30 min ([1]; Rat, −NADPH): 93.08 ± 1.21%
562 nM | CCOC(=O)Cn1c(C)c(/C=N/NC(=O)c2cc3c(ccc4ccccc43)o2)c2ccccc21 [Comparative Example 1, (E)-ethyl 2-(2-methyl-3-((2-(naphtho[2,1-b]furan-2-carbonyl)hydrazono)methyl)-1H-indol-1-yl)acetate, reference compound] | 
3880 nM | Cc1ccc2oc(C(=O)N/N=C/c3c(Cl)[nH]c4ccccc34)cc2c1 [Example 1, (E)-N′-[(2-chloro-1H-indol-3-yl)methylene]-5-methylbenzofuran-2-carbohydrazide] | 
263 nM | CCOCCn1c(Br)c(/C=N/NC(=O)c2cc3cc(C)ccc3o2)c2ccccc21 [Example 5, (E)-N′-[(2-bromo-1-(2-ethoxyethyl)-1H-indol-3-yl]methylene}-5-methylbenzofuran-2-carbohydrazide] | 
1220 nM | CCOCCn1c(C(F)(F)F)c(/C=N/NC(=O)c2cc3cc(C)ccc3o2)c2ccccc21 [Example 6, (E)-N′-{[1-(2-ethoxyethyl)-2-(trifluoromethyl)-1H-indol-3-yl]methylene}-5-methylbenzofuran-2-carbohydrazide] | 
233 nM | COCCn1c(Cl)c(/C=N/NC(=O)c2cc3cc(C)ccc3o2)c2ccccc21 [Example 7, (E)-N′-[(2-chloro-1-(2-methoxyethyl)-1H-indol-3-yl]methylene}-5-methylbenzofuran-2-carbohydrazide] | 
232 nM | CCOCCn1c(Cl)c(/C=N/NC(=O)c2cc3cc(C)ccc3o2)c2ccc(OC)cc21 [Example 9, (E)-N′-[(2-chloro-1-(2-ethoxyethyl)-6-methoxy-1H-indol-3-yl]methylene}-5-methylbenzofuran-2-carbohydrazide] | 
221 nM | CCOCCn1c(Cl)c(/C=N/NC(=O)c2cc3cc(C)ccc3o2)c2cc(F)ccc21 [Example 10, (E)-N′-[(2-chloro-1-(2-ethoxyethyl)-5-fluoro-1H-indol-3-yl]methylene}-5-methylbenzofuran-2-carbohydrazide] | 
243 nM | CCOCCn1c(Cl)c(/C=N/NC(=O)c2cc3cc(C)ccc3o2)c2cc(Cl)ccc21 [Example 11, (E)-N′-[(2,5-dichloro-1-(2-ethoxyethyl)-1H-indol-3-yl]methylene}-5-methylbenzofuran-2-carbohydrazide] | 
619 nM | CCOCCn1c(Cl)c(/C=N/NC(=O)c2cc3cc(C)ccc3o2)c2cc(OC(F)(F)F)ccc21 [Example 12, (E)-N′-[(2-chloro-1-(2-ethoxyethyl)-5-(trifluoromethoxy)-1H-indol-3-yl]methylene}-5-methylbenzofuran-2-carbohydrazide] | 
337 nM | CCOCCn1c(Cl)c(/C=N/NC(=O)c2cc3cc(C)ccc3o2)c2cc(C)ccc21 [Example 13, (E)-N′-[(2-chloro-1-(2-ethoxyethyl)-5-methyl-1H-indol-3-yl]methylene}-5-methylbenzofuran-2-carbohydrazide] | 
262 nM | CCOCCn1c(Cl)c(/C=N/NC(=O)c2cc3cc(OC)ccc3o2)c2ccccc21 [Example 14, (E)-N′-[(2-chloro-1-(2-ethoxyethyl)-1H-indol-3-yl]methylene}-5-methoxybenzofuran-2-carbohydrazide] | 
455 nM | CCOCCn1c(Cl)c(/C=N/NC(=O)c2cc3cc(Cl)ccc3o2)c2ccccc21 [Example 16, (E)-5-chloro-N′-{[2-chloro-1-(2-ethoxyethyl)-1H-indol-3-yl]methylene}benzofuran-2-carbohydrazide] | 
563 nM | CCOCCn1c(Cl)c(/C=N/NC(=O)c2cc3c(OC)cc(OC)cc3o2)c2ccccc21 [Example 18, (E)-N′-[(2-chloro-1-(2-ethoxyethyl)-1H-indol-3-yl]methylene}-4,6-dimethoxybenzofuran-2-carbohydrazide] | 
